# Test system: microorganisms
# Test: Biocidal activity evaluation, overall comparison in words
# Type: cell-based
# Experimental: The biocidal activity evaluations of the present invention quaternary ammonium salts and mixtures thereof as well as of commercially available biocides (for comparison purposes) were conducted using the Dynatech MIC-2000 system (available from Dynatech Laboratories, Inc., Alexandria, Va.). The Dynatech MIC-2000 system provides a quantitative factor, namely the specific concentration of the compound that inhibits the growth of a test organism.
# All compounds were prepared for testing by initially making a 1.0% w/v solution. These were then serially diluted so as to yield concentrations of sample in a range of 2000-16 mg/l. Testing was carried out under aseptic conditions in Trypticase Soy Broth (BBL, Div. Becton, Dickinson & Co., Cockeysville, MD). Each test was performed in duplicate and run at pH levels of 7.0, 8.0, and 9.0. The pH of the test medium was adjusted by the addition of 10% w/v NaOH before sterilization.
# Organisms utilized for MIC testing were all purchased from the American Type Culture Collection (ATCC), Rockville, MD. The six organisms chosen for these tests were:
# Inocula were prepared in Brain Heart Infusion Broth (BHI, Difco Laboratories, Detroit, MI), and standardized to 3.0×10^8 CFU/ml in 0.85% sterile saline. […] Plates were read and evaluated at this time, and results reported in mg/l of compound that inhibited the growth of the test organisms.
smiles,measurement,value
O=[N+]([O-])C(Br)(CO)CO [Bronopol],biocidal activity (in words),more active than the quaternary ammonium salts of the present invention

# Source: patent US4567302A, “Polymeric quaternary ammonium salts possessing antimicrobial activity and methods for preparation and use thereof” (priority 1984, dated 1986)
